Laboratory results published in DBAASP.
In brackets after ≈: the same amount, converted by molar mass.

Assays:
Experiment in all cases: ≥ marks a high value that may be exact or a test limit, other limits are often not marked, values filed in µg/mL are converted to µM
[1] = test system: Escherichia coli ATCC 25726
[2] = test system: Staphylococcus aureus ATCC 25923
[3] = test system: Candida albicans ATCC 90028
[4] = test system: Escherichia coli ATCC 25922
[5] = test system: Staphylococcus aureus NCTC 8325
[6] = test system: Bacillus subtilis ATCC 6633
[7] = test system: Escherichia coli ATCC 8739
[8] = test system: Staphylococcus aureus ATCC 43300
[9] = test system: Staphylococcus aureus ATCC 6538

| Compound | MIC [3] [µM] | MIC [4] [µM] | MIC [5] [µM] | further results |
| --- | --- | --- | --- | --- |
| CC(C)C[C@H](NC(=O)[C@H](CC(C)C)NC(=O)[C@H](CC(N)=O)NC(=O)[C@H](C)NC(=O)CNC(=O)[C@H](Cc1ccccc1)NC(=O)[C@H](CCCCN)NC(=O)[C@H](CC(C)C)NC(=O)[C@H](C)NC(=O)[C@H](CCCCN)NC(=O)CNC(=O)[C@H](CC(C)C)NC(=O)[C@@H](NC(=O)[C@H](CO)NC(=O)CNC(=O)[C@H](Cc1ccccc1)NC(=O)CN)C(C)C)C(N)=O [GFGSVLGKALKFGANLL] | – | – | – | MIC [1]: ≥ 50 µM; MIC [2]: 12.5 µM (≈ 21.1 µg/mL) |
| CC[C@H](C)[C@H](NC(=O)CNC(=O)[C@H](CC(N)=O)NC(=O)[C@H](CC(C)C)NC(=O)[C@H](CC(C)C)NC(=O)[C@H](CCCCN)NC(=O)CNC(=O)[C@@H](NC(=O)[C@@H](NC(=O)[C@@H]1CCCN1C(=O)[C@H](CC(C)C)NC(=O)[C@@H](NC(=O)[C@@H](NC(=O)[C@@H]1CCCN1C(=O)[C@H](CC(C)C)NC(=O)[C@@H](N)Cc1ccccc1)C(C)C)[C@@H](C)CC)C(C)C)[C@@H](C)CC)C(=O)N[C@@H](CC(C)C)C(N)=O [FLPVILPVIGKLLNGIL] | ≥ 50 | > 50 | 25 (≈ 45.5 µg/mL) | – |
| CC[C@H](C)[C@@H]1NC(=O)[C@H](C)NC(=O)[C@@H](NC(=O)[C@H](Cc2ccccc2)NC(=O)[C@@H](NC(=O)[C@H](CCCCN)NC(=O)[C@@H]2CCCN2C(=O)[C@H](CC(C)C)NC(=O)[C@H](Cc2ccccc2)NC(=O)[C@H](CCCCN)NC(=O)[C@H](C)NC(=O)[C@H](C)NC(=O)[C@@H](NC(=O)CNC(=O)[C@H](C)NC(=O)[C@@H](NC(=O)[C@@H](NC(=O)[C@@H]2CCCN2C(=O)[C@H](CC(C)C)NC(=O)[C@@H](N)Cc2ccccc2)C(C)C)[C@@H](C)CC)C(C)C)[C@@H](C)CC)CSSC[C@@H](C(=O)O)NC(=O)[C@H](CCCCN)NC(=O)[C@H](CCCCN)NC(=O)[C@H]([C@@H](C)O)NC1=O [FLPVIAGVAAKFLPKIFCAITKKC] | 8 (≈ 20.6 µg/mL) | 7 (≈ 18 µg/mL) | 4 (≈ 10.3 µg/mL) | – |
| CC[C@H](C)[C@@H]1NC(=O)[C@H](C)NC(=O)[C@@H](NC(=O)[C@@H](NC(=O)[C@@H](NC(=O)[C@H](CCCCN)NC(=O)[C@H](C)NC(=O)[C@H](C)NC(=O)[C@H](CCSC)NC(=O)CNC(=O)[C@H](C)NC(=O)[C@@H](NC(=O)[C@@H](NC(=O)[C@@H]2CCCN2C(=O)[C@H](Cc2ccccc2)NC(=O)[C@@H](N)Cc2ccccc2)[C@@H](C)CC)[C@@H](C)CC)C(C)C)[C@@H](C)CC)CSSC[C@@H](C(=O)O)NC(=O)[C@H](CCCCN)NC(=O)[C@H](CCCCN)NC(=O)[C@H]([C@@H](C)O)NC1=O [FFPIIAGMAAKVICAITKKC] | 3 (≈ 6.37 µg/mL) | 13 (≈ 27.6 µg/mL) | 3 (≈ 6.37 µg/mL) | – |
| CC[C@H](C)[C@H](NC(=O)[C@H](CC(C)C)NC(=O)[C@H](CCCN=C(N)N)NC(=O)CNC(=O)[C@@H](NC(=O)[C@@H](NC(=O)[C@@H]1CCCN1C(=O)[C@H](CC(C)C)NC(=O)[C@@H](N)Cc1ccccc1)[C@@H](C)CC)C(C)C)C(=O)N[C@@H](CO)C(=O)NCC(=O)N[C@@H](CC(C)C)C(=O)N[C@@H](CC(C)C)C(N)=O [FLPIVGRLISGLL] | – | 125 (≈ 175 µg/mL) | 15 (≈ 21 µg/mL) | – |
| CC[C@H](C)[C@H](NC(=O)[C@H](CCC(=O)O)NC(=O)[C@H](CO)NC(=O)[C@H](C)NC(=O)[C@H](CC(C)C)NC(=O)[C@H](C)NC(=O)[C@H](CCC(N)=O)NC(=O)CNC(=O)[C@H](Cc1ccccc1)NC(=O)[C@H](CCCCN)NC(=O)[C@H](CCCCN)NC(=O)[C@H](C)NC(=O)[C@H](CO)NC(=O)[C@H](Cc1cnc[nH]1)NC(=O)[C@H](CC(C)C)NC(=O)[C@H](Cc1ccccc1)NC(=O)[C@H](CCCCN)NC(=O)CNC(=O)[C@@H](NC(=O)CN)C(C)C)C(=O)N[C@@H](CCSC)C(=O)N[C@@H](CCCCN)C(=O)N[C@@H](CO)C(=O)O [GVGKFLHSAKKFGQALASEIMKS] | – | – | – | MIC [1]: ≥ 100 µM; MIC [2]: > 100 µM |

Further lines, with some results ahead:

| MIC [3] [µM] | MIC [4] [µM] | MIC [5] [µM] | Compound | further results |
| --- | --- | --- | --- | --- |
| ≥ 50 | 50 (≈ 155 µg/mL) | ≥ 50 | CC[C@H](C)[C@H](NC(=O)[C@H](C)NC(=O)[C@H](CC(=O)O)NC(=O)[C@H](CC(C)C)NC(=O)[C@H](CC(C)C)NC(=O)CN)C(=O)N[C@@H](CCCCN)C(=O)N[C@@H](CC(=O)O)C(=O)N[C@H](C(=O)N[C@@H](C)C(=O)N[C@@H](CCC(N)=O)C(=O)N[C@@H](CC(N)=O)C(=O)N[C@@H](CC(C)C)C(=O)N[C@@H](Cc1ccccc1)C(=O)N[C@@H](C)C(=O)N[C@@H](CC(N)=O)C(=O)N[C@H](C(=O)N[C@@H](CC(C)C)C(=O)N[C@@H](CC(=O)O)C(=O)N[C@@H](CCCCN)C(=O)N[C@H](C(=O)N[C@@H](CCCCN)C(=O)N[C@H]1CSSC[C@@H](C(=O)O)NC(=O)[C@H](CCCCN)NC(=O)[C@H]([C@@H](C)O)NC(=O)[C@H](Cc2ccccc2)NC(=O)[C@H](CCCCN)NC1=O)[C@@H](C)CC)C(C)C)[C@@H](C)O [GLLDAIKDTAQNLFANVLDKIKCKFTKC] | – |
| – | 1 (≈ 4.93 µg/mL) | 12 (≈ 59.2 µg/mL) | CC[C@H](C)[C@H](NC(=O)CNC(=O)[C@@H](NC(=O)[C@H](CCCN=C(N)N)NC(=O)[C@@H](NC(=O)[C@H](CC(C)C)NC(=O)[C@H](CC(=O)O)NC(=O)[C@H](CCSC)NC(=O)CNC(=O)[C@H](C)NC(=O)[C@H](CCC(=O)O)NC(=O)[C@H](CCCCN)NC(=O)CNC(=O)[C@@H](NC(=O)[C@@H](NC(=O)[C@H](CCCCN)NC(=O)[C@@H](NC(=O)[C@@H](NC(=O)[C@H](CC(N)=O)NC(=O)[C@H](Cc1ccccc1)NC(=O)[C@@H](NC(=O)CNC(=O)[C@@H](NC(=O)[C@H](CCCCN)NC(=O)[C@H](C)NC(=O)[C@H](CCCCN)NC(=O)[C@H](CCCCN)NC(=O)[C@H](CCCCN)NC(=O)[C@H](CC(N)=O)NC(=O)[C@@H](NC(=O)[C@H](CCCCN)NC(=O)[C@@H]1CCCN1C(=O)[C@H](Cc1ccccc1)NC(=O)[C@H](CC(C)C)NC(=O)CN)[C@@H](C)CC)[C@@H](C)O)C(C)C)[C@@H](C)CC)[C@@H](C)CC)[C@@H](C)O)C(C)C)[C@@H](C)CC)[C@@H](C)O)C(=O)N[C@@H](CC(=O)O)C(=O)N[C@H](C(=O)N[C@H](C(=O)NCC(=O)N[C@H]1CSSC[C@@H](C(=O)O)NC(=O)[C@H](CCC(=O)O)NC(=O)CNC(=O)[C@H](CCCCN)NC(=O)[C@H]([C@@H](C)CC)NC(=O)[C@H](CCCCN)NC1=O)[C@@H](C)CC)[C@@H](C)O [GLFPKINKKKAKTGVFNIIKTVGKEAGMDLIRTGIDTIGCKIKGEC] | – |
| ≥ 50 | – | – | CC[C@H](C)[C@H](NC(=O)CNC(=O)[C@H](CCCCN)NC(=O)[C@H](CC(C)C)NC(=O)[C@@H](NC(=O)[C@H](CC(C)C)NC(=O)[C@H](CC(N)=O)NC(=O)[C@H](CCCCN)NC(=O)[C@@H](NC(=O)[C@H](C)NC(=O)[C@H](CCCCN)NC(=O)CNC(=O)CNC(=O)[C@@H](NC(=O)[C@H](CCCCN)NC(=O)[C@H](CO)NC(=O)[C@H](Cc1ccccc1)NC(=O)[C@@H](NC(=O)[C@@H](N)CCCN=C(N)N)[C@@H](C)CC)[C@@H](C)CC)[C@@H](C)CC)[C@@H](C)CC)C(=O)N[C@@H](CCCCN)C(=O)N[C@@H](CC(N)=O)C(=O)N[C@H](C(=O)NCC(=O)N[C@@H](CCCCN)C(=O)N[C@@H](CCC(=O)O)C(=O)N[C@H](C(=O)NCC(=O)N[C@@H](CCSC)C(=O)N[C@@H](CC(=O)O)C(=O)N[C@H](C(=O)N[C@H](C(=O)N[C@@H](CCCN=C(N)N)C(=O)N[C@H](C(=O)NCC(=O)N[C@H](C(=O)N[C@@H](CC(=O)O)C(=O)N[C@H](C(=O)N[C@@H](C)C(=O)NCC(=O)N[C@H]1CSSC[C@@H](C(=O)O)NC(=O)[C@H](CCC(=O)O)NC(=O)CNC(=O)[C@H](CCCCN)NC(=O)[C@H]([C@@H](C)CC)NC(=O)[C@H](CCCCN)NC1=O)C(C)C)[C@@H](C)CC)[C@@H](C)O)[C@@H](C)CC)C(C)C)C(C)C)[C@@H](C)CC [RIFSKIGGKAIKNLILKGIKNIGKEVGMDVIRTGIDVAGCKIKGEC] | MIC [6]: 12.5 µM (≈ 61 µg/mL); MIC [7]: 3.1 µM (≈ 15.1 µg/mL); MIC [8]: 12.5 µM (≈ 61 µg/mL); MIC [9]: 3.1 µM (≈ 15.1 µg/mL) |
